Results from ChEMBL document CHEMBL1148617, “Design, synthesis, and structure-activity relationships of 1-,3-,8-, and 9-substituted-9-deazaxanthines at the human A2B adenosine receptor” (J Med Chem, 2006).

Biological target: T1, Adenosine receptor A2a (Homo sapiens, UniProt P29274)
Assay: not given

T1 sequence (P29274 whole entry): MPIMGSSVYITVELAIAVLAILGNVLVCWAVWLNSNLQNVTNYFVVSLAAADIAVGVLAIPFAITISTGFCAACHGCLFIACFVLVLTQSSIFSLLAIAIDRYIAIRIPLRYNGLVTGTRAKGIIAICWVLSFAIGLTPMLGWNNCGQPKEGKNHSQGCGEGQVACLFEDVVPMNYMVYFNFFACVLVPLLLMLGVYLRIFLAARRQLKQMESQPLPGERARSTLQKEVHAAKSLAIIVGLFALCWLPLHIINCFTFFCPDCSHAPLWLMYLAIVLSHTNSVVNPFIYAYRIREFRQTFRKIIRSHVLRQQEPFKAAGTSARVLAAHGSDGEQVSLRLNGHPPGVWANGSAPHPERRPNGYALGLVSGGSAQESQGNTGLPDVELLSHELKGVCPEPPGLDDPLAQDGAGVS

SMILES	Ki [µM]
CCCn1c(=O)c2[nH]c(-c3ccc(OC(C)(C)C(=O)Nc4ccccc4)cc3)cc2n(CCC)c1=O	0.0537
CCCn1c(=O)c2[nH]c(-c3ccc(OCC(=O)Nc4ccc(F)cc4)cc3)cc2n(C)c1=O	0.0661
CCCn1c(=O)c2[nH]c(-c3ccc(OCC(=O)Nc4ccc(C(=O)OCC)cc4)cc3)cc2n(CCC)c1=O	0.1
CCCn1c(=O)c2[nH]c(-c3ccc(OCC(=O)Nc4ccc(C(N)=O)cc4)cc3)cc2n(CCC)c1=O	0.024
Cn1c(=O)c2[nH]c(-c3ccc(OCC(=O)NCc4ccc(Cl)cc4)cc3)cc2n(C)c1=O	0.0204
CCCn1c(=O)c2[nH]c(-c3ccc(OCC(=O)n4ccc(N)n4)cc3)cc2n(CCC)c1=O	0.0263
COc1cc(OCC(=O)NCc2ccc(Cl)cc2)ccc1-c1cc2c([nH]1)c(=O)n(C)c(=O)n2C	0.186
CCCn1c(=O)c2[nH]c(-c3ccc(OCC(=O)Nc4ccc(NC(C)=O)cc4)cc3)cc2n(CCC)c1=O	0.0631
COc1cc(-c2cc3c([nH]2)c(=O)n(C)c(=O)n3C)ccc1OCC(=O)Nc1ccc(F)cc1	0.0457
Cn1c(=O)c2[nH]c(-c3cccc(OCC(=O)Nc4ccccc4)c3)cc2n(C)c1=O	0.204
CCCn1c(=O)c2[nH]c(-c3ccc(OCC(=O)Nc4cccc(F)c4)cc3)c(Cl)c2n(CCC)c1=O	0.245
CCCn1c(=O)c2[nH]c(-c3ccc(OCC(=O)Nc4ccc(C(C)(C)C)cc4)cc3)cc2n(CCC)c1=O	0.0794
CCCn1c(=O)c2[nH]c(-c3ccc(OC(C)(C)C(=O)Nc4ccc(F)cc4)cc3)cc2n(CCC)c1=O	0.017
CCCn1c(=O)c2[nH]c(-c3ccc(OCC(=O)Nc4ccc(C5=NC(C)(C)CO5)cc4)cc3)cc2n(CCC)c1=O	0.0912
CCCn1c(=O)c2[nH]c(-c3ccc(OCC(=O)Nc4ccc(F)cc4)cc3)cc2n(CCC)c1=O	0.012
CCCn1c(=O)c2[nH]c(-c3ccc(OCC(=O)Nc4ccccc4)cc3)c(Cl)c2n(CCC)c1=O	0.0741

Biological target: T1, Adenosine receptor A2a
Assay: Displacement of [3H]ZM-241385 from recombinant human adenosine A2A receptor expressed in HeLa cells at 0.1 uM

SMILES	inhibition [%]
CCCn1c(=O)c2[nH]c(-c3ccc(OC(C)(C)C(=O)Nc4ccccc4)cc3)cc2n(CCC)c1=O	57
CCCn1c(=O)c2[nH]c(-c3ccc(OCC(=O)Nc4ccc(F)cc4)cc3)cc2n(C)c1=O	47
CCCn1c(=O)c2[nH]c(-c3ccc(OCC(=O)Nc4ccc(C(=O)OCC)cc4)cc3)cc2n(CCC)c1=O	30
CCCn1c(=O)c2[nH]c(-c3ccc(OCC(=O)Nc4ccc(C(N)=O)cc4)cc3)cc2n(CCC)c1=O	43
Cn1c(=O)c2[nH]c(-c3ccc(OCC(=O)NCc4ccc(Cl)cc4)cc3)cc2n(C)c1=O	75
CCCn1c(=O)c2[nH]c(-c3ccc(OCC(=O)n4ccc(N)n4)cc3)cc2n(CCC)c1=O	65
COc1cc(OCC(=O)NCc2ccc(Cl)cc2)ccc1-c1cc2c([nH]1)c(=O)n(C)c(=O)n2C	23
CCCn1c(=O)c2[nH]c(-c3ccc(OCC(=O)Nc4ccc(NC(C)=O)cc4)cc3)cc2n(CCC)c1=O	40
COc1cc(-c2cc3c([nH]2)c(=O)n(C)c(=O)n3C)ccc1OCC(=O)Nc1ccc(F)cc1	35
Cn1c(=O)c2[nH]c(-c3cccc(OCC(=O)Nc4ccccc4)c3)cc2n(C)c1=O	32
CCCn1c(=O)c2[nH]c(-c3ccc(OCC(=O)Nc4cccc(F)c4)cc3)c(Cl)c2n(CCC)c1=O	20
CCCn1c(=O)c2[nH]c(-c3ccc(OCC(=O)Nc4ccc(C(C)(C)C)cc4)cc3)cc2n(CCC)c1=O	47
CCCn1c(=O)c2[nH]c(-c3ccc(OC(C)(C)C(=O)Nc4ccc(F)cc4)cc3)cc2n(CCC)c1=O	32
CCCn1c(=O)c2[nH]c(-c3ccc(OCC(=O)Nc4ccc(C5=NC(C)(C)CO5)cc4)cc3)cc2n(CCC)c1=O	25
CCCn1c(=O)c2[nH]c(-c3ccc(OCC(=O)Nc4ccc(F)cc4)cc3)cc2n(CCC)c1=O	62
CCCn1c(=O)c2[nH]c(-c3ccc(OCC(=O)Nc4ccccc4)cc3)c(Cl)c2n(CCC)c1=O	37

Biological target: T2, Adenosine receptor A2b (Homo sapiens) (UniProt P29275)
T2 sequence (whole entry): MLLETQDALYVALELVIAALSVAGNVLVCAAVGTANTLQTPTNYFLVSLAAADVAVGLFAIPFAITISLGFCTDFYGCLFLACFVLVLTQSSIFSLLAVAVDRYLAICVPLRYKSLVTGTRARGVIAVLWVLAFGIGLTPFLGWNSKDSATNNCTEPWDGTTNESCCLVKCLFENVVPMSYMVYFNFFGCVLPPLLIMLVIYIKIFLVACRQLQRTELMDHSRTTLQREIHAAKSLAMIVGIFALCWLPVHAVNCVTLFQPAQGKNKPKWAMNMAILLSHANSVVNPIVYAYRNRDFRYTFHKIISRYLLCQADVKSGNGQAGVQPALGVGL
Assay: Displacement of [3H]DPCPX from recombinant human adenosine A2B receptor expressed in HEK293 cells at 0.1 uM
Assay type: cell-based

SMILES	inhibition [%]
CCCn1c(=O)c2[nH]c(-c3ccc(OC(C)(C)C(=O)Nc4ccccc4)cc3)cc2n(CCC)c1=O	93
CCCn1c(=O)c2[nH]c(-c3ccc(OCC(=O)Nc4ccc(F)cc4)cc3)cc2n(C)c1=O	94
CCCn1c(=O)c2[nH]c(-c3ccc(OCC(=O)Nc4ccc(C(=O)OCC)cc4)cc3)cc2n(CCC)c1=O	57
CCCn1c(=O)c2[nH]c(-c3ccc(OCC(=O)Nc4ccc(C(N)=O)cc4)cc3)cc2n(CCC)c1=O	78
Cn1c(=O)c2[nH]c(-c3ccc(OCC(=O)NCc4ccc(Cl)cc4)cc3)cc2n(C)c1=O	93
CCCn1c(=O)c2[nH]c(-c3ccc(OCC(=O)n4ccc(N)n4)cc3)cc2n(CCC)c1=O	83
COc1cc(OCC(=O)NCc2ccc(Cl)cc2)ccc1-c1cc2c([nH]1)c(=O)n(C)c(=O)n2C	46
CCCn1c(=O)c2[nH]c(-c3ccc(OCC(=O)Nc4ccc(NC(C)=O)cc4)cc3)cc2n(CCC)c1=O	70
COc1cc(-c2cc3c([nH]2)c(=O)n(C)c(=O)n3C)ccc1OCC(=O)Nc1ccc(F)cc1	45
Cn1c(=O)c2[nH]c(-c3cccc(OCC(=O)Nc4ccccc4)c3)cc2n(C)c1=O	35
CCCn1c(=O)c2[nH]c(-c3ccc(OCC(=O)Nc4cccc(F)c4)cc3)c(Cl)c2n(CCC)c1=O	46
CCCn1c(=O)c2[nH]c(-c3ccc(OCC(=O)Nc4ccc(C(C)(C)C)cc4)cc3)cc2n(CCC)c1=O	94
CCCn1c(=O)c2[nH]c(-c3ccc(OC(C)(C)C(=O)Nc4ccc(F)cc4)cc3)cc2n(CCC)c1=O	97
CCCn1c(=O)c2[nH]c(-c3ccc(OCC(=O)Nc4ccc(C5=NC(C)(C)CO5)cc4)cc3)cc2n(CCC)c1=O	67
CCCn1c(=O)c2[nH]c(-c3ccc(OCC(=O)Nc4ccc(F)cc4)cc3)cc2n(CCC)c1=O	96
CCCn1c(=O)c2[nH]c(-c3ccc(OCC(=O)Nc4ccccc4)cc3)c(Cl)c2n(CCC)c1=O	57

Biological target: T3, Adenosine receptor A2b (Homo sapiens, UniProt P29275)
T3 sequence (P29275 whole entry): T2 sequence (whole entry)
Assay: not given

SMILES	Ki [µM]
CCCn1c(=O)c2[nH]c(-c3ccc(OC(C)(C)C(=O)Nc4ccccc4)cc3)cc2n(CCC)c1=O	0.00794
CCCn1c(=O)c2[nH]c(-c3ccc(OCC(=O)Nc4ccc(F)cc4)cc3)cc2n(C)c1=O	0.00562
CCCn1c(=O)c2[nH]c(-c3ccc(OCC(=O)Nc4ccc(C(=O)OCC)cc4)cc3)cc2n(CCC)c1=O	0.0562
CCCn1c(=O)c2[nH]c(-c3ccc(OCC(=O)Nc4ccc(C(N)=O)cc4)cc3)cc2n(CCC)c1=O	0.0251
Cn1c(=O)c2[nH]c(-c3ccc(OCC(=O)NCc4ccc(Cl)cc4)cc3)cc2n(C)c1=O	0.0049
CCCn1c(=O)c2[nH]c(-c3ccc(OCC(=O)n4ccc(N)n4)cc3)cc2n(CCC)c1=O	0.017
COc1cc(OCC(=O)NCc2ccc(Cl)cc2)ccc1-c1cc2c([nH]1)c(=O)n(C)c(=O)n2C	0.123
CCCn1c(=O)c2[nH]c(-c3ccc(OCC(=O)Nc4ccc(NC(C)=O)cc4)cc3)cc2n(CCC)c1=O	0.0138
COc1cc(-c2cc3c([nH]2)c(=O)n(C)c(=O)n3C)ccc1OCC(=O)Nc1ccc(F)cc1	0.145
Cn1c(=O)c2[nH]c(-c3cccc(OCC(=O)Nc4ccccc4)c3)cc2n(C)c1=O	0.166
CCCn1c(=O)c2[nH]c(-c3ccc(OCC(=O)Nc4cccc(F)c4)cc3)c(Cl)c2n(CCC)c1=O	0.0603
CCCn1c(=O)c2[nH]c(-c3ccc(OCC(=O)Nc4ccc(C(C)(C)C)cc4)cc3)cc2n(CCC)c1=O	0.00794
CCCn1c(=O)c2[nH]c(-c3ccc(OC(C)(C)C(=O)Nc4ccc(F)cc4)cc3)cc2n(CCC)c1=O	0.00891
CCCn1c(=O)c2[nH]c(-c3ccc(OCC(=O)Nc4ccc(C5=NC(C)(C)CO5)cc4)cc3)cc2n(CCC)c1=O	0.0347
CCCn1c(=O)c2[nH]c(-c3ccc(OCC(=O)Nc4ccc(F)cc4)cc3)cc2n(CCC)c1=O	0.00331
CCCn1c(=O)c2[nH]c(-c3ccc(OCC(=O)Nc4ccccc4)cc3)c(Cl)c2n(CCC)c1=O	0.0372

Biological target: T2, Adenosine receptor A2b (Homo sapiens)
Assay: Displacement of [3H]DPCPX from recombinant human adenosine A2B receptor expressed in HEK293 cells at 0.01 uM

SMILES	inhibition [%]
CCCn1c(=O)c2[nH]c(-c3ccc(OC(C)(C)C(=O)Nc4ccccc4)cc3)cc2n(CCC)c1=O	51
CCCn1c(=O)c2[nH]c(-c3ccc(OCC(=O)Nc4ccc(F)cc4)cc3)cc2n(C)c1=O	57
CCCn1c(=O)c2[nH]c(-c3ccc(OCC(=O)Nc4ccc(C(=O)OCC)cc4)cc3)cc2n(CCC)c1=O	6
CCCn1c(=O)c2[nH]c(-c3ccc(OCC(=O)Nc4ccc(C(N)=O)cc4)cc3)cc2n(CCC)c1=O	16
Cn1c(=O)c2[nH]c(-c3ccc(OCC(=O)NCc4ccc(Cl)cc4)cc3)cc2n(C)c1=O	61
CCCn1c(=O)c2[nH]c(-c3ccc(OCC(=O)n4ccc(N)n4)cc3)cc2n(CCC)c1=O	30
COc1cc(OCC(=O)NCc2ccc(Cl)cc2)ccc1-c1cc2c([nH]1)c(=O)n(C)c(=O)n2C	11
CCCn1c(=O)c2[nH]c(-c3ccc(OCC(=O)Nc4ccc(NC(C)=O)cc4)cc3)cc2n(CCC)c1=O	23
COc1cc(-c2cc3c([nH]2)c(=O)n(C)c(=O)n3C)ccc1OCC(=O)Nc1ccc(F)cc1	10
Cn1c(=O)c2[nH]c(-c3cccc(OCC(=O)Nc4ccccc4)c3)cc2n(C)c1=O	10
CCCn1c(=O)c2[nH]c(-c3ccc(OCC(=O)Nc4cccc(F)c4)cc3)c(Cl)c2n(CCC)c1=O	6
CCCn1c(=O)c2[nH]c(-c3ccc(OCC(=O)Nc4ccc(C(C)(C)C)cc4)cc3)cc2n(CCC)c1=O	51
CCCn1c(=O)c2[nH]c(-c3ccc(OC(C)(C)C(=O)Nc4ccc(F)cc4)cc3)cc2n(CCC)c1=O	50
CCCn1c(=O)c2[nH]c(-c3ccc(OCC(=O)Nc4ccc(C5=NC(C)(C)CO5)cc4)cc3)cc2n(CCC)c1=O	11
CCCn1c(=O)c2[nH]c(-c3ccc(OCC(=O)Nc4ccc(F)cc4)cc3)cc2n(CCC)c1=O	70
CCCn1c(=O)c2[nH]c(-c3ccc(OCC(=O)Nc4ccccc4)cc3)c(Cl)c2n(CCC)c1=O	11
